Assay results taken from patent publication US11807693B2 (priority 2014, dated 2023).
Starred links: 1 amine or outer side, 2 acyl side, 3 side chain; linkers in the order of their positions; H or OH if unused. Non-standard residues stand in square brackets, D forms with d. Residues, ends and D or L forms follow the SMILES beside them. *: point of attachment. Phe(4-Cl) = N[C@@H](Cc1ccc(Cl)cc1)C(=O)O; γGlu = O=C(O)[C@H](CCC(=O)[*:2])N[*:1]; 2Nal = N[C@@H](Cc1ccc2ccccc2c1)C(=O)O; NMeR = CN[C@@H](CCCNC(=N)N)C(=O)O; Tridecanoyl = CCCCCCCCCCCCC(=O)*; hArg = N=C(N)NCCCC[C@H](N)C(=O)O; Cha = N[C@@H](CC1CCCCC1)C(=O)O; αMeL = CC(C)C[C@](C)(N)C(=O)O; Pip = O=C(O)[C@@H]1CCCCN1; Nle = CCCC[C@H](N)C(=O)O; AEEA = NCCOCCOCC(=O)O; Aib = CC(C)(N)C(=O)O; βAla = NCCC(=O)O

Tests used:
[1] = In vitro stability in rat plasma; type: in vitro ADME
Method: (§1) Apelin peptides were spiked into rat plasma, liver homogenate, and kidney homogenate, which were obtained from commercial sources, to a final concentration of 5 μM. The samples were then incubated at 37° C. over a period of 4 hr. […] In a typical experiment, an aliquot of 100 μL of sample was taken from the incubation vial, followed by addition of 300 μL of MeOH containing internal standard. The quenched sample was centrifuged at 5500 g for 15 min after 15 min vortex in room temperature. The supernatant was then analyzed by high resolution LC-MS. […] In vitro plasma, […], and kidney stability results are shown below in Table 14.

[2] = In vitro stability in rat liver homogenate; type: in vitro ADME; conditions: tissue homogenate
Method: as §1

Row | remaining at 4 h, 5 μM [1] | remaining at 4 h, 5 μM [2] | SMILES
1 | 25% | < 1% | CCCCCCCCCCCCC(=O)N[C@@H](CCC(=O)NCCOCCOCC(=O)NCCOCCOCC(=O)N[C@@H](CCC(N)=O)C(=O)N[C@H](CCCNC(=N)N)C(=O)N1CCC[C@H]1C(=O)N(C)[C@@H](CCCCNC(=N)N)C(=O)NC(CC(=O)N[C@@H](CO)C(=O)N[C@@H](Cc1c[nH]cn1)C(=O)N[C@@H](CCCCN)C(=O)NCC(=O)N1CCC[C@H]1C(=O)N[C@@H](CCCC)C(=O)N1CCC[C@H]1C(=O)N[C@@H](Cc1ccc(Cl)cc1)C(=O)O)C(C)C)C(=O)O (some centres unmarked) [compound 384]
2 | 87% | < 1% | CCCCCCCCCCCCC(=O)N[C@@H](CCC(=O)NCCOCCOCC(=O)NCCOCCOCC(=O)N[C@@H](CCC(N)=O)C(=O)N[C@@H](CCCNC(=N)N)C(=O)N1CCC[C@H]1C(=O)N(C)[C@@H](CCCNC(=N)N)C(=O)N[C@@H](CC(C)C)C(=O)N[C@@H](CO)C(=O)N[C@@H](Cc1c[nH]cn1)C(=O)N[C@@H](CCCCN)C(=O)NCC(=O)N1CCC[C@H]1C(=O)N[C@@H](CCCC)C(=O)N[C@@H](Cc1ccc(Cl)cc1)C(=O)O)C(=O)O [compound 402] ({Tridecanoyl-γGlu-AEEA-AEEA}-QRP[NMeR]LSHKGP[Nle][Phe(4-Cl)]-OH)
3 | 37% | < 1% | CCCCCCCCCCCCC(=O)N[C@@H](CCC(=O)NCCOCCOCC(=O)NCCOCCOCC(=O)N[C@@H](CCC(N)=O)C(=O)N[C@@H](CCCNC(=N)N)C(=O)N1CCC[C@H]1C(=O)N(C)[C@@H](CCCNC(=N)N)C(=O)N[C@H](CC(=O)N[C@@H](CO)C(=O)N[C@@H](Cc1c[nH]cn1)C(=O)N[C@@H](CCCCN)C(=O)NCC(=O)N1CCC[C@H]1C(=O)N[C@@H](CCCC)C(=O)N1CCC[C@H]1C(=O)N[C@@H](Cc1ccc(Cl)cc1)C(=O)O)CC(C)C)C(=O)O [compound 422]
4 | > 90% | < 1% | CCCCCCCCCCCCC(=O)N[C@@H](CCC(=O)NCCOCCOCC(=O)NCCOCCOCC(=O)N[C@@H](CCC(N)=O)C(=O)N[C@@H](CCCNC(=N)N)C(=O)N1CCC[C@H]1C(=O)N(C)[C@@H](CCCNC(=N)N)C(=O)N[C@@H](CC(C)C)C(=O)N[C@@H](CO)C(=O)N[C@@H](Cc1c[nH]cn1)C(=O)N[C@@H](CCCCN)C(=O)NCC(=O)N1CCC[C@H]1C(=O)N[C@@H](CCCC)C(=O)NCCC(=O)N[C@@H](Cc1ccc(Cl)cc1)C(=O)O)C(=O)O [compound 425] ({Tridecanoyl-γGlu-AEEA-AEEA}-QRP[NMeR]LSHKGP[Nle][βAla][Phe(4-Cl)]-OH)
5 | 33% | < 1% | CCCCCCCCCCCCC(=O)N[C@@H](CCC(=O)NCCOCCOCC(=O)NCCOCCOCC(=O)N[C@@H](CCC(N)=O)C(=O)N[C@@H](CCCNC(=N)N)C(=O)N1CCC[C@H]1C(=O)N(C)[C@@H](CCCNC(=N)N)C(=O)N[C@@H](CC(C)C)C(=O)N[C@@H](CO)C(=O)N[C@@H](Cc1c[nH]cn1)C(=O)N[C@@H](CCCCN)C(=O)NCC(=O)N1CCC[C@H]1C(=O)N[C@@H](CCCC)C(=O)N1CCC[C@H]1CC(=O)N[C@@H](Cc1ccc(Cl)cc1)C(=O)O)C(=O)O [compound 426]
6 | 62% | < 1% | CCCCCCCCCCCCC(=O)N[C@@H](CCC(=O)NCCOCCOCC(=O)NCCOCCOCC(=O)N[C@@H](CCC(N)=O)C(=O)N[C@@H](CCCNC(=N)N)C(=O)N1CCC[C@H]1C(=O)N(C)[C@@H](CCCNC(=N)N)C(=O)N[C@@](C)(CC(C)C)C(=O)N[C@@H](CO)C(=O)N[C@@H](Cc1c[nH]cn1)C(=O)N[C@@H](CCCCN)C(=O)NCC(=O)N1CCC[C@H]1C(=O)N[C@@H](CCCC)C(=O)N1CCC[C@H]1C(=O)N[C@@H](Cc1ccc(Cl)cc1)C(=O)O)C(=O)O [compound 457]
7 | 21% | < 1% | CCCCCCCCCCCCC(=O)N[C@@H](CCC(=O)NCCOCCOCC(=O)NCCOCCOCC(=O)N[C@@H](CCC(N)=O)C(=O)N[C@@H](CCCNC(=N)N)C(=O)N1CCC[C@H]1C(=O)N(C)[C@@H](CCCNC(=N)N)C(=O)N[C@@H](CC(C)C)C(=O)NCCC(=O)N[C@@H](Cc1c[nH]cn1)C(=O)N[C@@H](CCCCN)C(=O)NCC(=O)N1CCC[C@H]1C(=O)N[C@@H](CCCC)C(=O)N1CCC[C@H]1C(=O)N[C@@H](Cc1ccc(Cl)cc1)C(=O)O)C(=O)O [compound 464] ({Tridecanoyl-γGlu-AEEA-AEEA}-QRP[NMeR]L[βAla]HKGP[Nle]P[Phe(4-Cl)]-OH)
8 | 36% | < 1% | CCCCCCCCCCCCC(=O)N[C@@H](CCC(=O)NCCOCCOCC(=O)NCCOCCOCC(=O)N[C@@H](CCC(N)=O)C(=O)N[C@@H](CCCNC(=N)N)C(=O)N1CCC[C@H]1C(=O)N(C)[C@@H](CCCNC(=N)N)C(=O)N[C@@H](CC(C)C)C(=O)N[C@@H](CO)C(=O)N[C@H](CN[C@@H](CCCCN)C(=O)NCC(=O)N1CCC[C@H]1C(=O)N[C@@H](CCCC)C(=O)N1CCC[C@H]1C(=O)N[C@@H](Cc1ccc(Cl)cc1)C(=O)O)Cc1c[nH]cn1)C(=O)O [compound 469]
9 | 82% | < 1% | CCCCCCCCCCCCC(=O)N[C@@H](CCC(=O)NCCOCCOCC(=O)NCCOCCOCC(=O)N[C@@H](CCC(N)=O)C(=O)N[C@@H](CCCCNC(=N)N)C(=O)N1CCC[C@H]1C(=O)N(C)[C@@H](CCCNC(=N)N)C(=O)N[C@@](C)(CC(C)C)C(=O)N[C@@H](CO)C(=O)N[C@@H](Cc1c[nH]cn1)C(=O)N[C@@H](CCCCN)C(=O)NCC(=O)N1CCC[C@H]1C(=O)N[C@@H](CCCC)C(=O)N1CCC[C@H]1C(=O)N[C@@H](Cc1ccc2ccccc2c1)C(=O)O)C(=O)O [compound 473] ({Tridecanoyl-γGlu-AEEA-AEEA}-Q[hArg]P[NMeR][αMeL]SHKGP[Nle]P[2Nal]-OH)
10 | 40% | < 1% | CCCCCCCCCCCCC(=O)N[C@@H](CCC(=O)NCCOCCOCC(=O)NCCOCCOCC(=O)N[C@@H](CCC(N)=O)C(=O)N[C@@H](CCCNC(=N)N)C(=O)N[C@@H](CCC(=O)O)C(=O)N(C)[C@@H](CCCNC(=N)N)C(=O)N[C@@H](CC(C)C)C(=O)N[C@@H](CO)C(=O)N[C@@H](Cc1c[nH]cn1)C(=O)N[C@@H](CCCCN)C(=O)NCC(=O)N1CCC[C@H]1C(=O)N[C@@H](CCCC)C(=O)N1CCC[C@H]1C(=O)N[C@@H](Cc1ccc(Cl)cc1)C(=O)O)C(=O)O [compound 476]
11 | 62% | < 1% | CCCCCCCCCCCCC(=O)N[C@@H](CCC(=O)NCCOCCOCC(=O)NCCOCCOCC(=O)N[C@@H](CCC(N)=O)C(=O)N[C@@H](CCCNC(=N)N)C(=O)N1CCC[C@@]1(C)C(=O)N[C@@H](CCCCNC(=N)N)C(=O)N[C@@](C)(CC(C)C)C(=O)N[C@@H](CO)C(=O)N[C@@H](Cc1c[nH]cn1)C(=O)N[C@@H](CCCCN)C(=O)NCC(=O)N1CCC[C@H]1C(=O)N[C@@H](CCCC)C(=O)N1CCC[C@H]1C(=O)N[C@@H](Cc1ccc(Cl)cc1)C(=O)O)C(=O)O [compound 482]
12 | 37% | < 1% | CCCCCCCCCCCCC(=O)N[C@@H](CCC(=O)NCCOCCOCC(=O)NCCOCCOCC(=O)N[C@@H](CCC(N)=O)C(=O)N[C@@H](CCCCNC(=N)N)C(=O)N1CCC[C@H]1C(=O)N(C)[C@@H](CCCCNC(=N)N)C(=O)N[C@@H](CC(C)C)C(=O)N[C@@H](CO)C(=O)N[C@@H](Cc1c[nH]cn1)C(=O)N[C@@H](CCCCN)C(=O)NCC(=O)N1CCC[C@H]1C(=O)N[C@@H](CCCC)C(=O)N1CCC[C@H]1C(=O)N[C@@H](Cc1ccc(Cl)cc1)C(=O)O)C(=O)O [compound 483]
13 | 79% | < 1% | CCCCCCCCCCCCC(=O)N[C@@H](CCC(=O)NCCOCCOCC(=O)NCCOCCOCC(=O)N[C@@H](CCC(N)=O)C(=O)N(C)[C@@H](CCCCNC(=N)N)C(=O)N1CCC[C@H]1C(=O)N(C)[C@@H](CCCNC(=N)N)C(=O)N[C@@](C)(CC(C)C)C(=O)N[C@@H](CO)C(=O)N[C@@H](Cc1c[nH]cn1)C(=O)N[C@@H](CCCCN)C(=O)NCC(=O)N1CCC[C@H]1C(=O)N[C@@H](CCCC)C(=O)N1CCC[C@H]1C(=O)N[C@@H](Cc1ccc(Cl)cc1)C(=O)O)C(=O)O [compound 484]
14 | 74% | < 1% | CCCCCCCCCCCCC(=O)N[C@@H](CCC(=O)NCCOCCOCC(=O)NCCOCCOCC(=O)N[C@@H](CCC(N)=O)C(=O)N[C@H](CCCNC(=N)N)C(=O)N1CCC[C@H]1C(=O)N[C@@H](CCCCNC(=N)N)C(=O)N[C@@](C)(CC(C)C)C(=O)N[C@@H](CO)C(=O)N[C@@H](Cc1c[nH]cn1)C(=O)N[C@@H](CCCCN)C(=O)NCC(=O)N1CCC[C@H]1C(=O)N[C@@H](CCCC)C(=O)N1CCC[C@H]1C(=O)N[C@@H](Cc1ccc(Cl)cc1)C(=O)O)C(=O)O [compound 485]
15 | 75% | < 1% | CCCCCCCCCCCCCCC(=O)N[C@@H](CCC(=O)NCCOCCOCC(=O)NCCOCCOCC(=O)N[C@@H](CCC(N)=O)C(=O)N[C@@H](CCCNC(=N)N)C(=O)N1CCC[C@H]1C(=O)N(C)[C@@H](CCCNC(=N)N)C(=O)N[C@@H](CC(C)C)C(=O)N[C@@H](CO)C(=O)N[C@@H](Cc1c[nH]cn1)C(=O)N[C@@H](CCCCN)C(=O)NCC(=O)N1CCC[C@H]1C(=O)N[C@@H](CCCC)C(=O)N1CCC[C@H]1C(=O)N[C@@H](Cc1ccc(Cl)cc1)C(=O)O)C(=O)O [compound 495]
16 | > 90% | < 1% | CCCCCCCCCCCCC(=O)N[C@@H](CCC(=O)NCCOCCOCC(=O)NCCOCCOCC(=O)N[C@H](CCC(N)=O)C(=O)N[C@@H](CCCNC(=N)N)C(=O)N1CCC[C@H]1C(=O)N(C)[C@@H](CCCNC(=N)N)C(=O)N[C@@H](CC1CCCCC1)C(=O)N[C@@H](CO)C(=O)N[C@@H](Cc1c[nH]cn1)C(=O)N[C@@H](CCCCN)C(=O)NCC(=O)N1CCCC[C@H]1C(=O)N[C@@H](CCCC)C(=O)NC(C)(C)C(=O)N[C@@H](Cc1ccc(Cl)cc1)C(=O)O)C(=O)O [compound 499] ({Tridecanoyl-γGlu-AEEA-AEEA}-[dQ]RP[NMeR][Cha]SHKG[Pip][Nle][Aib][Phe(4-Cl)]-OH)
